Data: US5936065A, “CS-1 peptidomimetics, compositions and methods of using the same” (Cytel Corporation, priority 1995, dated 1999)
One block for each compound: values may come before it. Square brackets hold non-standard residues; d marks the D form. Peptide text beside a SMILES is read from it. * marks the point of attachment. NMeD = CN[C@@H](CC(=O)O)C(=O)O; Morpholide = C1CN(*)CCO1; PhAc = O=C(Cc1ccccc1)*

What was measured:
[1] = biological target: T1, VLA-4 receptor (Homo sapiens, UniProt P05556+P13612); test: In vitro binding assay: inhibition of binding of 51Cr-labeled Jurkat cells to solid phase-bound CS-1 compound (SEQ ID NO:1); type: cell-based; details: for Relative Potency: binding inhibition potency (IC50) normalized to standard compound of SEQ ID NO:3 = 1, multiple assays averaged, about one-tenth or less assigned zero
T1 construct: inflammatory cells that contain the VLA-4 receptor [Jurkat cells; host or cells: Jurkat cells (human T lymphoblastic line)
Experimental: Binding inhibition is measured here as a concentration of compound that inhibits one-half the binding between a standard number of Jurkat cells and a standard amount of CS-1 compound bound to the surface of a microtiter plate well. Those concentrations are conveniently expressed as IC50 values, smaller numbers indicating a lower concentration required to inhibit 50 percent binding and therefore greater potency. Further specifics of this assay are provided hereinafter.
Jurkat cells (ATCC TIB 152), a human T lymphoblastic line, labeled with ^51 chromium were used to assay in vitro binding inhibition provided by various compounds discussed herein.
The plates were prepared as follows: The 25-mer CS-1 compound (SEQ ID NO:1) dissolved at 0.5-1 μg/ml in a buffer of 0.1M NaHCO3 at pH 9.5 that also contained 10 μg/ml of bovine serum albumin (BSA) or a conjugate of the CS-1 compound linked to ovalbumin (CS-1-OVA) dissolved at 1-2.5 μg/ml in the same buffer was used as the substrate. Each well of the microtiter plates was coated with 50 μl of substrate or buffer alone for controls. The wells were permitted to dry out completely and were then rinsed twice with PBS at pH 7.4. Non-specific binding sites of each well were then blocked using 200 μl per well of RPMI/1 percent BSA for two hours at room temperature.
Jurkat cells (3-5×10^6 cells) were placed into a 15 ml Falcon™ round-bottom tube with a cap. The tube was centrifuged, and the extra medium was then removed.
Two hundred microliters of a ^51 Cr labeling solution were added to the centrifuged cells and maintained in contact with the cells for 90-120 minutes in a warm room. […] Longer contact times provide a greater amount of labeling but lower cell viability.
The labeled cells are washed with (i) complete medium, (ii) 1 mM EDTA/PBS and then (iii) RPM1/1 percent BSA free of serum components. The cells are centrifuged after each washing. The cells are finally resuspended in serum-free RPMI/1 percent BSA at a concentration of 1×10^6 viable cells/ml, which provides a concentration that is diluted by one-half in the assay.
Inhibitor compounds are prepared as stock solutions at 20 mg/ml in DMSO in 1.5 ml cryogenic screwcap vials, and were stored at -70° C. Using Flow™ round-bottom or V-bottom microtiter plates, the inhibitor compounds were prepared at twice the assay concentration in RPMI/1 percent BSA at 60 μl/well.
Four initial dilutions were typically used.
The ^51 Cr-labeled cells ([…] at 60 μl/well) were then admixed with the diluted compound solutions. The admixtures were maintained at room temperature (about 22° C.) for 30 minutes.
One hundred microliters of each inhibitor compound/cell admixture were transferred to the substrate-coated wells. This was done in triplicate for each dilution. The resulting plates were incubated for 30 minutes at 37° C. and then washed gently three times with RPMI/1 percent BSA at 200 μl/well. Binding was observed microscopically, particularly after the second wash.
The bound cells were then lysed by the addition of a 0.5 percent solution of sodium dodecylsulfate in water at 100 μl/well. The resulting solutions were then processed for counting and calculation of IC50 values following usual procedures.
The data of Table 1 are normalized to the binding of SEQ ID NO:3. […] Multiple assays for the same compound were averaged.

[2] = system: New Zealand white rabbits; test: Treatment of asthmatic rabbits (house dust mite antigen challenge, crossover study); type: in vivo, rabbit; details: 100 mg/kg nebulizer
Experimental: Six New Zealand white rabbits were immunized with house dust mite antigen from birth through four months of age. Upon immunization, three rabbits received a single nebulizer administration of the inhibitor compound, Compound ID No. 1051.01, N-phenylacetyl-Leu-Asp-Phe-morpholinamide in aqueous 50 percent ethanol as diluent in an amount of 100 mg/kg, and the other three received diluent alone. All of the rabbits were challenged with house dust mite antigen about 15-30 minutes after administration of the compound, with those animals not receiving compound serving as controls.
Once immunized and challenged, the inflammatory state subsides to a basal level within about three weeks. The three animals used as controls were thereafter used as subjects for receipt of an inhibitor compound, and the three rabbits that initially received the compound can serve as controls.
Such a crossover study was done here. […]
Initial pulmonary function, measured by dynamic compliance (Cdyn) and lung resistance (RL) , and bronchoalveolar lavage (BAL) to obtain an effector cell count, here eosinophils, were conducted prior to administration of the compound or diluent for both portions of this crossover study. […]

[3] = system: BALB/c mice; test: Adoptive transfer delayed type hypersensitivity (oxazolone) in mice; type: in vivo, mouse; details: versus vehicle alone; implanted pump, 24 hours
Experimental: An adoptive transfer delayed-type hypersensitivity murine model has been developed using splenic T cells primed to oxazolone. This model is described in Elices et al., Clin. Exp. Rheum., 11(Suppl. 8):577-580 (1993), whose procedures were followed here.
Thus, BALB/c mice were shaved on the belly and painted (50 μl on the belly and 5 μl on each paw) with three percent oxazolone in acetone/olive oil (4:1) at days zero and 1. At day 5, the mice were sacrificed, their spleens removed, and splenic T cells were obtained via nylon wool columns.
Normal saline or saline containing 25×10^6 /animal of the oxazolone-immune T cells were separately injected into naive mice. The mice were then challenged by painting 10 μl of 2 percent oxazolone onto one ear each. All procedures were carried out under sterile conditions and in endotoxin-free buffers.
Prior to challenge or saline injection, the mice were implanted with pumps that subcutaneously administered normal saline, normal saline containing the compound, Compound ID No. 896.52, N-phenylacetyl-Leu-Asp-Phe-D-Pro-NH2, or normal saline containing a compound with a scrambled sequence continually at 6 mg/kg/day for a 24-hour time period. The swelling diameter at the site of challenge or saline injection was measured with a microcaliper 24 hours thereafter.
An expanded study was carried out as described above except that a scrambled compound control was not used as a control for further inhibitor compounds of Table 1 with larger groups of mice. Statistical analyses were carried out versus injection of vehicle alone.

[4] = system: Jurkat T cell line; test: Binding of Jurkat cells to frozen human RA synovial sections; type: cell-based; details: 10-mer at 500 μg/ml; 896.52 at its IC50 value
Experimental: Binding studies were carried out using the Jurkat T cell line and frozen RA synovial sections. […] Stimulated MOLT-4 cells behaved similarly.
The absolute value of that IC50 value is about 0.5 μmolar.

[5] = system: mouse; details: in vivo; cited from earlier work

T1 sequence (P13612 34-1032): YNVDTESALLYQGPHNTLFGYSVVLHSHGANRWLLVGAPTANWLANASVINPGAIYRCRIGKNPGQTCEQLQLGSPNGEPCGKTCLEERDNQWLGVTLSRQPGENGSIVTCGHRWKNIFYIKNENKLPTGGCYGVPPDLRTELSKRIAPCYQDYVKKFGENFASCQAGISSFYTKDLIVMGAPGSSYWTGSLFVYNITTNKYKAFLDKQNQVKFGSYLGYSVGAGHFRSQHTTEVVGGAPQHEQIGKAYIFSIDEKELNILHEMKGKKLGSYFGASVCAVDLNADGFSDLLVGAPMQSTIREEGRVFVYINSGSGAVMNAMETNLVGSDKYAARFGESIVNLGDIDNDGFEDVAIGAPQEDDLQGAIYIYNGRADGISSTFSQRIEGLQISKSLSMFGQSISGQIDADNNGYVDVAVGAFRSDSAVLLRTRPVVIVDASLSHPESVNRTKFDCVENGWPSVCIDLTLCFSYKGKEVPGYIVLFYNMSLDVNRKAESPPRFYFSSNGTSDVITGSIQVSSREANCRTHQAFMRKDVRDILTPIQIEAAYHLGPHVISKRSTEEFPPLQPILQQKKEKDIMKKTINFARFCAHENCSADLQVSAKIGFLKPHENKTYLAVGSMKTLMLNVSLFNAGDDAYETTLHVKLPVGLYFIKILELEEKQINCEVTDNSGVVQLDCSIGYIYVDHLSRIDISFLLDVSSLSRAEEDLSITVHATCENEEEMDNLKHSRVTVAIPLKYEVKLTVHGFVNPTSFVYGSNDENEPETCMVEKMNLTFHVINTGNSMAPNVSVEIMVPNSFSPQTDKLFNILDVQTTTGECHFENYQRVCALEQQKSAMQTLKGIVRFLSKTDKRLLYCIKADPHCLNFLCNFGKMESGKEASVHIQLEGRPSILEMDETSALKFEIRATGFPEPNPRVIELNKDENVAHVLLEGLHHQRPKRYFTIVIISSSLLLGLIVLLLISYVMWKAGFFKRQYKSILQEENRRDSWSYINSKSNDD
T1 sequence (P05556 21-798): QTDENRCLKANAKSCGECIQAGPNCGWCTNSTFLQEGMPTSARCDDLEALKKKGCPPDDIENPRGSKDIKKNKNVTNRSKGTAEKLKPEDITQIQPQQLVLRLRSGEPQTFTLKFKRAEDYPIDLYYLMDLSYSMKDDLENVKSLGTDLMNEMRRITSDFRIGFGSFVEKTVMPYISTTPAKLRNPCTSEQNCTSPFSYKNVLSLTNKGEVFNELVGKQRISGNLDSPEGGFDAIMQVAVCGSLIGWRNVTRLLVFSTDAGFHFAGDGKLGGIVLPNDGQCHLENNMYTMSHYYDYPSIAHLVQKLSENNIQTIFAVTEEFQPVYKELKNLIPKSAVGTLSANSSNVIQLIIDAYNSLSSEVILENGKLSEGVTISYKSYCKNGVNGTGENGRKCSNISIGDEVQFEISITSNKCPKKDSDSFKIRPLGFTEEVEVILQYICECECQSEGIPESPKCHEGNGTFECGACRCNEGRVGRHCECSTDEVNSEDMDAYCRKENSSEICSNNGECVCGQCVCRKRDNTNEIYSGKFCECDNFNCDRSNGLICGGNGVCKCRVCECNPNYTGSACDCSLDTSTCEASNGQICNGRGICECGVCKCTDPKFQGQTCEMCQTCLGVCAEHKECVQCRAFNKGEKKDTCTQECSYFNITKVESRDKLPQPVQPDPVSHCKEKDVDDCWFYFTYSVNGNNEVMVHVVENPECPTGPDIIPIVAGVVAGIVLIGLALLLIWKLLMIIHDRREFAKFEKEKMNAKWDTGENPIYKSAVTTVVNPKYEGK

binding inhibition, in words (compared with standard 10-mer of SEQ ID NO:3 or other compounds) [1]: greatest potency
Compound: CC(C)C[C@H](NC(=O)Cc1ccccc1)C(=O)N[C@@H](CC(=O)O)C(=O)N[C@@H](Cc1ccccc1)C(=O)N1CCOCC1 [1051.01, N-phenylacetyl-Leu-Asp-Phe-morpholinamide] (PhAc-Leu-Asp-Phe-Morpholide)
Cdyn value over six hours after challenge ([2]; FIG. 4A): stayed at about the initial value
RL values over six hours after challenge, percent of initial value ([2]; FIG. 4B): ≤ 200%

Compound: CC(C)C[C@H](NC(=O)Cc1ccccc1)C(=O)N[C@@H](CC(=O)O)C(=O)N[C@@H](Cc1ccccc1)C(=O)N1CCC(O)CC1 [1070.02, .phi.Ac--Leu--Asp--Phe--4-hydroxpiperidinamide]
Percent Inhibition of post-challenge swelling, expanded study [3]: 29%

Compound: CC(C)C[C@H](NC(=O)Cc1ccccc1)C(=O)N[C@@H](CC(=O)O)C(=O)N[C@@H](Cc1ccccc1)C(=O)N1CCN(CC(=O)O)CC1 [1111.06, .phi.Ac--Leu--Asp--Phe--4-N(carboxy-methyl)piperazinamide]
Relative Potency [1]: 2600
Percent Inhibition of post-challenge swelling, expanded study [3]: 30%

Compound: CC(C)C[C@H](NC(=O)Cc1ccccc1)C(=O)N(C)[C@@H](CC(=O)O)C(=O)N[C@@H](Cc1ccccc1)C(=O)N1CCC[C@@H]1C(N)=O [1190.06] (PhAc-L[NMeD]F[dP]-NH2)
Relative Potency [1]: 0

Compound: CC[C@H](C)[C@H](NC(=O)[C@H](CCC(=O)O)NC(=O)[C@@H]1CCCN1C(=O)CN)C(=O)N[C@@H](CC(C)C)C(=O)N[C@@H](CC(=O)O)C(=O)N[C@H](C(=O)N1CCC[C@H]1C(=O)N[C@@H](CO)C(=O)N[C@H](C(=O)O)[C@@H](C)O)C(C)C [SEQ ID NO:3, GPEILDVPST] (H-GPEILDVPST-OH)
inhibition of Jurkat cell adhesion to RA synovial sections [4]: could be inhibited

Compound: Arg-Gly-Asp [Arg-Gly-Asp peptide]
inhibition of contact hypersensitivity / T lymphocyte recruitment to skin inflammatory sites [5]: also inhibitory
